Molecular target: T1, LPA2 receptor (LPA2R) (Homo sapiens, UniProt Q9HBW0)
T1 construct: expressed in transfected cells; host or cells: U2OS
Assay: LPA2R-Calciumflux assay (intracellular calcium mobilisation, FLIPR)
Format: cell-based
Conditions: U2OS cells recombinant expressing LPA2R; inhibition of LPA-induced Ca-flux; 10 concentrations 30 uM to 1 nM, 1% DMSO
Excerpt: The assay detects intra cellular calcium which is generated by cells upon activation of the LPA2 receptor by its ligand LPA. This transient calcium mobilization can be monitored using a commercial calcium detection kit (e.g. from Molecular Devices). The main component of such a kit is a dye, which becomes fluorescent when calcium is present—a transient fluorescence signal after laddition of a ligand to a test well are the result. Readers like the FLIPR (Molecular Devices) can be used to monitor such transient “Ca-flux” signals.
The signals are calculated according to peak maximum minus base line.
The assay is performed in microplates (384 wells per plate).
LPA2R-Calciumflux Assay Protocol
The assay is run according to the following procedure: • 50 uL seed cells (10000 cells/well in DMEM buffer) • Incubate 24 h at 37° C., 10% CO2 • aspirate medium • 50 uL add calcium dye 1×HBSS/HEPES buffer • incubate 1 h at 37° C. (“loading”) • equilibrate 10 min at RT • 5 uL add compounds in HEPES buffer • shake 10 sec. at 1000 rpm • incubate 15 min at RT • 20 uL add LPA (in the FLIPR Tetra) in Krebs-buffer/BSA & measurement
The cells are seeded in DMEM buffer (DMEM, 10% FCS, 10 mM HEPES, 1% Pen/Strep).
Dye loading is done in HBSS/HEPES buffer (100 mL 10×HBSS+20 mL 1M HEPES+880 mL water, pH 7.4)
The LPA is added in Krebs/BSA buffer (120 mM NaCl, 5 mM KCl, 0.62 mM MgSO4, 1.8 mM CaCl2, 10 mM HEPES, 6 mM D(+)-Glucose, 0.2% BSA, pH 7.4).
The compounds are pre-diluted in HEPES buffer (20 mM, pH 7.4), whereby the final DMSO content in the assay is kept at 1%. The compounds are pre-diluted in order to generate dose response series on the microplates. The dose response series consist of 10 concentrations for each compound from 30 uM final to 1 nM final. From all compound wells the resulting signals are referred to control wells (located on each plate besides the compound wells) in terms of % activity.
From these % activity values—along with the corresponding compound concentrations—IC50 values are fitted for each compound using standard fitting programs such as Graphpad Prism. Here the method “log(inhibitor) vs. response—Variable slope” is used.

T1 sequence (Q9HBW0 whole entry): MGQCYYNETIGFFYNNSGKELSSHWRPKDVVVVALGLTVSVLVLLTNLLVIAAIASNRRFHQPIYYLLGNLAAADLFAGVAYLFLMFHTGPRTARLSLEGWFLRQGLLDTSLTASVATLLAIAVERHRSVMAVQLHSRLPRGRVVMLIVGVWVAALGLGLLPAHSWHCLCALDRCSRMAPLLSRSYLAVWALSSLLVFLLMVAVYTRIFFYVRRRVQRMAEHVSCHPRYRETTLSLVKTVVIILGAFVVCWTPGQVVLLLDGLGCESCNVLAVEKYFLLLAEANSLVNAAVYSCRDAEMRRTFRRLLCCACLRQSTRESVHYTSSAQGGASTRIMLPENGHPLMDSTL

| Compound | IC50 [nM] |
| --- | --- |
| CC1CCCC(c2cc3cc(F)ccc3[nH]2)N1Cc1ccccc1O (stereo not shown) [compound 29, 2-[2-(5-Fluoro-1H-indol-2-yl)-6-methyl-piperidin-1-ylmethyl]-phenol] | 500 to 5000 |
| CC1CCCC(c2cc3cc(F)ccc3[nH]2)N1Cc1ccc(S(C)(=O)=O)cc1 (stereo not shown) [compound 33] | 500 to 5000 |
| COc1cccc(CN2CC(C)CCC2c2cc3cc(F)ccc3[nH]2)c1 (stereo not shown) [compound 62, 5-Fluoro-2-[1-(3-methoxy-benzyl)-5-methyl-piperidin-2-yl]-1H-indole] | 5000 to 15000 |
| Fc1ccc(F)c2[nH]c(C3CCCCN3)cc12 (stereo not shown) [compound 44, 4,7-Difluoro-2-piperidin-2-yl-1H-indole] | 500 to 5000 |
| Cc1ccc2[nH]c(C3CCCCN3Cc3ccc(F)cc3)cc2c1 (stereo not shown) [compound 70] | 500 to 5000 |
| Cc1ccc(CN2CCCCC2c2nc3cc(F)ccc3n2C)cc1C (stereo not shown) [compound 103, 2-[1-(3,4-Dimethyl-benzyl)-piperidin-2-yl]-5-fluoro-1-methyl-1H-benzo-imidazole] | 500 to 5000 |
| COc1cccc(CN2CCCCC2c2cc3cc(F)ccc3[nH]2)c1 (stereo not shown) [compound 109, 5-Fluoro-2-[1-(3-methoxy-benzyl)-piperidin-2-yl]-1H-indole] | < 500 |
| Cc1ccc(CN2CCCCC2c2cc3cc(F)cc(F)c3[nH]2)cc1C (stereo not shown) [compound 23, 2-[1-(3,4-Dimethyl-benzyl)-piperidin-2-yl]-5,7-difluoro-1H-indole] | 500 to 5000 |
| CCOC(=O)c1ccc(CN2C(C)CCCC2c2cc3cc(F)ccc3[nH]2)cc1 (stereo not shown) [compound 35, 4-[2-(5-Fluoro-1H-indol-2-yl)-6-methyl-piperidin-1-ylmethyl]-benzoic acid ethyl ester] | 500 to 5000 |
| Fc1ccc(CN2CCCCC2c2nc3cc(F)ccc3[nH]2)cc1 (stereo not shown) [compound 49, 5-Fluoro-2-[1-(4-fluoro-benzyl)-piperidin-2-yl]-1H-benzo-imidazole] | < 500 |
| FC(F)(F)c1cccc(CN2CCCCC2c2nc3ccc(Cl)cc3[nH]2)c1 (stereo not shown) [compound 89] | 500 to 5000 |
| COc1ccccc1CN1C(C)CCCC1c1cc2cc(F)ccc2[nH]1 (stereo not shown) [compound 28, 5-Fluoro-2-[1-(2-methoxy-benzyl)-6-methyl-piperidin-2-yl]-1H-indole] | 500 to 5000 |
| Cc1cc2nc(C3CCCCN3Cc3cccc(C(F)(F)F)c3)[nH]c2cc1Cl (stereo not shown) [compound 126] | < 500 |
| Cc1cc(C)cc(CN2CCCCC2c2cc3cc(F)ccc3[nH]2)c1 (stereo not shown) [compound 84, 2-[1-(3,5-Dimethyl-benzyl)-piperidin-2-yl]-5-fluoro-1H-indole] | < 500 |
| COc1cccc(CN2CCCCC2c2cc3cc(OC)ccc3[nH]2)c1 (stereo not shown) [compound 82, 5-Methoxy-2-[1-(3-methoxy-benzyl)-piperidin-2-yl]-1H-indole] | < 500 |
| Cn1nc(CN2CCCCC2c2cc3cc(F)ccc3[nH]2)c2ccccc21 (stereo not shown) [compound 110, 3-[2-(5-Fluoro-1H-indol-2-yl)-piperidin-1-ylmethyl]-1-methyl-1H-indazole] | < 500 |
| Cc1nc(CN2CCCCC2c2nc3cc(F)ccc3[nH]2)cs1 (stereo not shown) [compound 123] | 500 to 5000 |
| Cc1cccc(CN2CCCCC2c2nc3ccc(S(N)(=O)=O)cc3[nH]2)c1 (stereo not shown) [compound 129, 2-[1-(3-Methyl-benzyl)-piperidin-2-yl]-3H-benzo-imidazole-5-sulfonic acid amide] | < 500 |
| CC1(C)CCC(C)(C)c2cc(CN3CCCCC3c3nc4ccc(Br)cc4[nH]3)ccc21 (stereo not shown) [compound 94, 6-Bromo-2-[1-(5,5,8,8-tetramethyl-5,6,7,8-tetrahydro-naphthalen-2-ylmethyl)-piperidin-2-yl]-1H-benzo-imidazole] | 5000 to 15000 |
| CC(c1ccc(F)cc1)N1CCCCC1c1cc2cc(F)ccc2[nH]1 (stereo not shown) [compound 72, 5-Fluoro-2-{1-[1-(4-fluoro-phenyl)-ethyl]-piperidin-2-yl}-1H-indole] | < 500 |
| Cc1ccc2c(c1)c(CN1CCCCC1c1cc3cc(F)ccc3[nH]1)cn2C (stereo not shown) [compound 65, 3-[2-(5-Fluoro-1H-indol-2-yl)-piperidin-1-ylmethyl]-1,5-dimethyl-1H-indole] | 500 to 5000 |
| Cc1cc(Cl)cc2nc(C3CCCCN3Cc3cccc(C(F)(F)F)c3)[nH]c12 (stereo not shown) [compound 98] | 500 to 5000 |

| Compound | IC50 [nM] |
| --- | --- |
| COc1cccc(CN2CCC(C)CC2c2cc3cc(Cl)ccc3[nH]2)c1 (stereo not shown) [compound 74, 5-Chloro-2-[1-(3-methoxy-benzyl)-4-methyl-piperidin-2-yl]-1H-indole] | 500 to 5000 |
| Cc1ccc(CN2CCCCC2c2nc3cccc(C)c3[nH]2)cc1C (stereo not shown) [compound 100, 2-[1-(3,4-Dimethyl-benzyl)-piperidin-2-yl]-7-methyl-1H-benzo-imidazole] | < 500 |
| Fc1ccc(CN2CCCCC2c2cc3cc(F)ccc3[nH]2)c(F)c1 (stereo not shown) [compound 112, 2-[1-(2,4-Difluoro-benzyl)-piperidin-2-yl]-5-fluoro-1H-indole] | < 500 |
| Cn1cc(CN2CCCCC2c2cc3ccccc3[nH]2)c2ccccc21 (stereo not shown) [compound 8, 3-[2-(1H-Indol-2-yl)-piperidin-1-ylmethyl]-1-methyl-1H-indole] | 500 to 5000 |
| Fc1ccc(CN2CCCC[C@H]2c2nc3cc(F)ccc3[nH]2)cc1 [compound 131, 5-Fluoro-2-[(S)-1-(4-fluoro-benzyl)-piperidin-2-yl]-1H-benzo-imidazole] | 500 to 5000 |
| Fc1ccc2[nH]c(C3CCCCN3Cc3ccc(Cl)cc3Cl)cc2c1 (stereo not shown) [compound 59, 2-[1-(2,4-Dichloro-benzyl)-piperidin-2-yl]-5-fluoro-1H-indole] | 5000 to 15000 |
| Cc1ccc(CN2CCCC[C@H]2c2nc3cc(F)ccc3[nH]2)cc1C [compound 142, 2-[(S)-1-(3,4-Dimethyl-benzyl)-piperidin-2-yl]-5-fluoro-1H-benzo-imidazole] | < 500 |
| Cc1ccc(CN2CCCCC2c2nc3cc(Cl)cnc3[nH]2)cc1C (stereo not shown) [compound 128, 6-Chloro-2-[1-(3,4-dimethyl-benzyl)-piperidin-2-yl]-3H-imidazo[4,5-b]pyridine] | < 500 |
| Cc1ccc(CN2CCCCC2c2nc3ccc(Br)cc3[nH]2)cc1C(F)(F)F (stereo not shown) [compound 93] | 500 to 5000 |
| FC(F)(F)c1ccccc1CN1CCCCC1c1cc2ccccc2[nH]1 (stereo not shown) [compound 16] | 5000 to 15000 |
| Cc1cccc(CN2CCCCC2c2cc3cc(F)cc(F)c3[nH]2)c1 (stereo not shown) [compound 21, 5,7-Difluoro-2-[1-(3-methyl-benzyl)-piperidin-2-yl]-1H-indole] | 5000 to 15000 |
| Cc1cccc(CN2CCCCC2c2nc3cc(C)c(Cl)cc3[nH]2)c1 (stereo not shown) [compound 106, 6-Chloro-5-methyl-2-[1-(3-methyl-benzyl)-piperidin-2-yl]-1H-benzo-imidazole] | < 500 |
| CC1CCCC(c2cc3cc(F)ccc3[nH]2)N1Cc1ccc(F)cc1F (stereo not shown) [compound 37, 2-[1-(2,4-Difluoro-benzyl)-6-methyl-piperidin-2-yl]-5-fluoro-1H-indole] | 500 to 5000 |
| Cc1ccc(CN2CCCCC2c2nc3ccc(Br)cc3[nH]2)cc1C (stereo not shown) [compound 96, 6-Bromo-2-[1-(3,4-dimethyl-benzyl)-piperidin-2-yl]-1H-benzo-imidazole] | < 500 |
| Fc1ccc(CN2CCCC[C@@H]2c2cc3ccccc3[nH]2)cc1 [compound 125, 2-[(R)-1-(4-Fluoro-benzyl)-piperidin-2-yl]-1H-indole] | < 500 |
| Cc1ccc(CN2CCC(C)CC2c2cc3cc(F)ccc3[nH]2)cc1C (stereo not shown) [compound 87, 2-[1-(3,4-Dimethyl-benzyl)-4-methyl-piperidin-2-yl]-5-fluoro-1H-indole] | < 500 |
| Cc1ccc(CN2CCCCC2c2cc3cc(F)cc(F)c3[nH]2)cc1 (stereo not shown) [compound 22, 5,7-Difluoro-2-[1-(4-methyl-benzyl)-piperidin-2-yl]-1H-indole] | 5000 to 15000 |
| Cc1ccc(CN2CCCC[C@@H]2c2cc3ccccc3[nH]2)cc1 [compound 143, 2-[(R)-1-(4-Methyl-benzyl)-piperidin-2-yl)-1H-indole] | < 500 |
| Cc1cc2nc(C3CCCCN3Cc3ccc4c(c3)C(C)(C)CCC4(C)C)[nH]c2cc1Cl (stereo not shown) [compound 113, 6-Chloro-5-methyl-2-[1-(5,5,8,8-tetramethyl-5,6,7,8-tetrahydro-naphthalen-2-ylmethyl)-piperidin-2-yl]-1H-benzo-imidazole] | 500 to 5000 |
| CC1CCCC(c2cc3cc(F)ccc3[nH]2)N1 (stereo not shown) [compound 45, 5-Fluoro-2-(6-methyl-piperidin-2-yl)-1H-indole] | 500 to 5000 |
| c1ccc(CN2CCCCC2c2cc3ccccc3[nH]2)cc1 (stereo not shown) [compound 6, 2-(1-Benzyl-piperidin-2-yl)-1H-indole] | 500 to 5000 |

Reference: patent US9527850B2, “Benzyl piperidine compounds as lysophosphatidic acid (LPA) receptor antagonist” (Merck Patent GmbH, priority 2011, dated 2016)
